Assay results as given in PMC7762786, “The discovery of novel antitrypanosomal 4-phenyl-6-(pyridin-3-yl)pyrimidines” (European Journal of Medicinal Chemistry, 2021).

Legend:
HDAC1 = target: T1, HDAC1 (Homo sapiens, UniProt Q13547); test: Histone deacetylase assay (HDAC-Glo I/II); assay type: biochemical; details: 10 μM, result in words
T1 construct: purchased BPS Bioscience (San Diego, USA)
Description: (§1) Cytotoxicity was also determined against 786-O and A549 cells.
(§2) Experiments for determining pre-clinical in vitro ADME-Tox activities were performed as described by Moraes et al. and also described in the following sections 4.3.2.1 to 4.3.2.4.
(§3) Inhibition of histone deacetylase (HDAC) enzymes was determined using the bioluminogenic HDAC-Glo™ I/II assay (Promega Corp.) in 384-well assay format. Human recombinant HDAC enzymes were purchased from BPS Bioscience (San Diego, USA) and the standard inhibitor trichostatin A (Sigma-Aldrich) was dissolved to a yield stock solution in 100% v/v DMSO (stored at −20 °C). Plate handling was performed using a Cell Explorer HTS platform equipped with an Echo 550® Liquid Handler and Multidrop liquid handling system with luminescence measurements taken using an EnVision® multilabel 2103 reader. Compounds were added to plates (100 nL/well; 1% v/v DMSO) and the HDAC-Glo™ I/II assay reagent was prepared by (i) rehydration of lyophilised HDAC-Glo™ I/II substrate (with an acetylated peptide concentration of 100 μM) in 10 mL HDAC-Glo™ I/II assay buffer and (ii) addition of 10 μL of developer reagent (containing trypsin). The microtiter plates were mixed briefly by orbital shaking (500–700 rpm) and luminescence was measured at steady-state signal:background which was achieved after 20 min. The raw data were normalised relative to the positive and negative controls yielding the % inhibition for each compound.

HDAC3 = target: T2, HDAC3 (Homo sapiens, UniProt O15379); test: Histone deacetylase assay (HDAC-Glo I/II); assay type: biochemical; details: 10 μM, result in words
T2 construct: purchased BPS Bioscience (San Diego, USA)
Description: as §1, §2, §3

HDAC6 = target: T3, HDAC6 (Homo sapiens, UniProt Q9UBN7); test: Histone deacetylase assay (HDAC-Glo I/II); assay type: biochemical; details: 10 μM, result in words
T3 construct: purchased BPS Bioscience (San Diego, USA)
T3 sequence (Q9UBN7 1-1215): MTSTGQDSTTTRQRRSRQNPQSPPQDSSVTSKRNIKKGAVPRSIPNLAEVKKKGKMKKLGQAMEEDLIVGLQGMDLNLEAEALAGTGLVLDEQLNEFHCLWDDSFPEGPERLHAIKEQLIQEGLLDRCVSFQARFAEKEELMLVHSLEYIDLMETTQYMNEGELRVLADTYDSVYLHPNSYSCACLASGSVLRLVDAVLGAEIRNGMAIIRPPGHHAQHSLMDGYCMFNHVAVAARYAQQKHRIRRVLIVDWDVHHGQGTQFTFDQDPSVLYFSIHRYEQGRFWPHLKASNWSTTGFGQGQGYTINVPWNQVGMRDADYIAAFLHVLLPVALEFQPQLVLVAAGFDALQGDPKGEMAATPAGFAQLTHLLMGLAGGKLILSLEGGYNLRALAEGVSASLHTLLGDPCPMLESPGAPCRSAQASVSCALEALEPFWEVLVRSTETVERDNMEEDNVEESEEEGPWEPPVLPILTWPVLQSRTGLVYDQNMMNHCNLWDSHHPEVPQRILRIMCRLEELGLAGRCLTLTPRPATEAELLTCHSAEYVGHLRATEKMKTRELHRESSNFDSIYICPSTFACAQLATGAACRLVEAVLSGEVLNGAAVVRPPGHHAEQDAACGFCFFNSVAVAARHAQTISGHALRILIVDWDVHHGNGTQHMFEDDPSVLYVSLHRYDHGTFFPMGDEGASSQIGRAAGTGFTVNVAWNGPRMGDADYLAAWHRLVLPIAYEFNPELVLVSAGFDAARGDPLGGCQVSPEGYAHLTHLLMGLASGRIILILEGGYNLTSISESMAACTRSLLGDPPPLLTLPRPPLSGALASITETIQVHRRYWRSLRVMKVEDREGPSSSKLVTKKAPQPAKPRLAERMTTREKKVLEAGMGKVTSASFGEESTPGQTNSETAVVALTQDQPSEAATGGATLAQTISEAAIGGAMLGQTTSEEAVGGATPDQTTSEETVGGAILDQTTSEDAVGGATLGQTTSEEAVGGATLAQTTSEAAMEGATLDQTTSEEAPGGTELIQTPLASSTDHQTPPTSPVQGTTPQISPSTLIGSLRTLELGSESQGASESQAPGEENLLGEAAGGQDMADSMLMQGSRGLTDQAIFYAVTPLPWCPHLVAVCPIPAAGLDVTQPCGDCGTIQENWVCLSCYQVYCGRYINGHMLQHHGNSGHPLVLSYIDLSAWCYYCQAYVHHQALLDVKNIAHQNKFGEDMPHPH
Description: as §1, §2, §3

hERG = target: T4, hERG (Homo sapiens, UniProt Q12809); test: hERG cardiotoxicity assay (Predictor hERG Fluorescence Polarisation); assay type: binding; details: 10 μM, result in words
T4 construct: purchased Invitrogen
Description: as §1, §2
The Invitrogen Predictor™ hERG Fluorescence Polarisation Assay was used in 384-well assay format. […] The plates were incubated for 2 h at 25 °C in a humidity-controlled incubator and the fluorescence polarisation was measured using an EnVision® multilabel 2103 reader. […] The raw data were normalised relative to the positive and negative controls yielding the % cardiotoxicity for each compound.

T2 sequence (O15379 whole entry): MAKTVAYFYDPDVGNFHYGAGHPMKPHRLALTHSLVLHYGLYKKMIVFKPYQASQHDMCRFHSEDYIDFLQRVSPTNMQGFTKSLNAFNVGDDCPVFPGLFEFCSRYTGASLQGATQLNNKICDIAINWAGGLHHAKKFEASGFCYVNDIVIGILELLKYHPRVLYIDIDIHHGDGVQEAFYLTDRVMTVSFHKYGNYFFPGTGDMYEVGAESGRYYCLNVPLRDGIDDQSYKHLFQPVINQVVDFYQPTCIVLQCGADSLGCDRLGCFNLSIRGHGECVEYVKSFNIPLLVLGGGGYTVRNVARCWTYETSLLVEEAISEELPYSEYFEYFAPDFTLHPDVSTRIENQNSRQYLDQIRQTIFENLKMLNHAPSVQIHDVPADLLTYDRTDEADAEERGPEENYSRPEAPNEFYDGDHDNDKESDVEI
T2 sequence (Q9Y618 395-489 partner limits assumed): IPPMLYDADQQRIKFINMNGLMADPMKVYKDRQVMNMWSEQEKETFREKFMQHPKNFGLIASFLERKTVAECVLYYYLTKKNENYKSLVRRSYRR
T4 sequence (Q12809 whole entry): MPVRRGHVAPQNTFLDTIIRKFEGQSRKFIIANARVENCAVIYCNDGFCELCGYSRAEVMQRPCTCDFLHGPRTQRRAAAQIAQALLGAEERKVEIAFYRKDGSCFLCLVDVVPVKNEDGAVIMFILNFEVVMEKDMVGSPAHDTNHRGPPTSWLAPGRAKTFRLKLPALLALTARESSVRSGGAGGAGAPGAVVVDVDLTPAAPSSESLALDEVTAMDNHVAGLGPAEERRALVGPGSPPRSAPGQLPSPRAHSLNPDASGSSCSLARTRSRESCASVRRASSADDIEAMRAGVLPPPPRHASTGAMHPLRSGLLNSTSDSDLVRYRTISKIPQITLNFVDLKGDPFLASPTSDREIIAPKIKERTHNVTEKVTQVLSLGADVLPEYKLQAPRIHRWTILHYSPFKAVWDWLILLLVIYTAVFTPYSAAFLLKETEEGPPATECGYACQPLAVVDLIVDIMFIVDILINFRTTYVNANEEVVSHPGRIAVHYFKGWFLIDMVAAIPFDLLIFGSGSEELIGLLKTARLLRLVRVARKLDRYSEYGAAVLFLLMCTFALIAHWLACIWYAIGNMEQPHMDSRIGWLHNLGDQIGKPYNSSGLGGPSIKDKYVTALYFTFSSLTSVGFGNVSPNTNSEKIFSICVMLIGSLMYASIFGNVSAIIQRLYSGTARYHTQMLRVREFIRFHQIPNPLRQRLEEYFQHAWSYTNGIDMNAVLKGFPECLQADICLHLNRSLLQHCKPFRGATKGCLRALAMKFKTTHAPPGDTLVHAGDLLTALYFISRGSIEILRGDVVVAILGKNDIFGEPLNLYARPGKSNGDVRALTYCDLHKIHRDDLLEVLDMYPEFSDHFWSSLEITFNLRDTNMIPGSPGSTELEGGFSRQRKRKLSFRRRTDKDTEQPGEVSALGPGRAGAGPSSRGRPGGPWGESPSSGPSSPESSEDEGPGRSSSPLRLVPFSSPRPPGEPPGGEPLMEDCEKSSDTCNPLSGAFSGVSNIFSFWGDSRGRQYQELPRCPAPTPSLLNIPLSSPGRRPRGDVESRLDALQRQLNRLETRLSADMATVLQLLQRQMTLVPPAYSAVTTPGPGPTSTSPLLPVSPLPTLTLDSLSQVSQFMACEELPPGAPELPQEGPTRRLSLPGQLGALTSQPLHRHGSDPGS
T1 sequence (Q13547 whole entry): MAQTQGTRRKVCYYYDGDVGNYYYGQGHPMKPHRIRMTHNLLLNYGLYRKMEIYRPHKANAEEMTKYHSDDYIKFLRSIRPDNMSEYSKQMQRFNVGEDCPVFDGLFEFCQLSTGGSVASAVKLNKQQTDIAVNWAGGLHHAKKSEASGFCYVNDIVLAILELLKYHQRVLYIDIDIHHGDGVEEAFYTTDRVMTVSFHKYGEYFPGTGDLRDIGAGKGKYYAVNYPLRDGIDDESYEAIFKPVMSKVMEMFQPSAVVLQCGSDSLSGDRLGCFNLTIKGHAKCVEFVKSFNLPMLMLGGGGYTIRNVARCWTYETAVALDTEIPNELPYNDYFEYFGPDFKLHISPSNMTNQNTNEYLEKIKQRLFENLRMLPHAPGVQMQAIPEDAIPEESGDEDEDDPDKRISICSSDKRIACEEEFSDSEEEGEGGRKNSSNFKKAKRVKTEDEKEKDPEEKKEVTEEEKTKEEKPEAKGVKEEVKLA

In the case of `COc1ccccc1-c1cc(-c2cccnc2)nc(N)n1` [Compound 13, 4-(2-Methoxyphenyl)-6-(pyridin-3-yl)pyrimidin-2-amine], the HDAC1 inhibition (HDAC1) is reported as “No inhibition”, the HDAC3 inhibition (HDAC3) is reported as “No inhibition” and the HDAC6 inhibition (HDAC6) is reported as “No inhibition”. The melting point was 108 to 110 °C and the hERG cardiotoxicity (hERG) was “no notable”.
